Assay results as given in the supplement of paper PMC10307832.

Experiments:
Assay in all cases: relative viability (nuclei count vs DMSO), 5 days (fraction); higher = more cells survive
[1] = tested on: NCI-H1437
Method in brief: (§1)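 Each reported value is a median over duplicate plates. It expresses relative viability: treated-well nuclei count divided by vehicle-well nuclei count. Lung cancer cell lines in 1536-well plates were dosed by pin tool a day after seeding, alone with one drug or with a fixed anchor-drug dose plus five library-drug doses (not always all listed) in √10 steps, and nuclei were counted after 5 days.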

[2] = tested on: NCI-H1299
Method in brief: as §1

[3] = tested on: SW 1573
Method in brief: as §1

[4] = tested on: A549
Method in brief: as §1

[5] = tested on: IA-LM
Method in brief: as §1

[6] = tested on: Calu-6
Method in brief: as §1

[7] = tested on: ABC-1
Method in brief: as §1

[8] = tested on: NCI-H1703
Method in brief: as §1

[9] = tested on: SK-MES-1
Method in brief: as §1

[10] = tested on: COR-L23
Method in brief: as §1

[11] = tested on: NCI-H1651
Method in brief: as §1

[12] = tested on: EBC-1
Method in brief: as §1

Question: What does the source list for O=c1cc(-c2cccc3c2Sc2ccccc2S3)oc(N2CCOCC2)c1 + Cc1nc(NC(=O)N2CCC[C@H]2C(N)=O)sc1-c1ccnc(C(C)(C)C(F)(F)F)c1 [Alpelisib] (partner 2 µM)?
Answer: relative viability ([1]; first compound 0.08 µM): 1.07; relative viability ([1]; first compound 0.253 µM): 1.08; relative viability ([1]; first compound 0.8 µM): 1.15; relative viability ([1]; first compound 2.53 µM): 0.989; relative viability ([1]; first compound 8 µM): 1.08; relative viability ([2]; first compound 0.08 µM): 1.03; relative viability ([2]; first compound 0.253 µM): 1.09; relative viability ([2]; first compound 0.8 µM): 1.13; relative viability ([2]; first compound 2.53 µM): 1.03; relative viability ([2]; first compound 8 µM): 1.08; relative viability ([3]; first compound 0.08 µM): 0.719; relative viability ([3]; first compound 0.253 µM): 0.785; relative viability ([3]; first compound 0.8 µM): 0.667; relative viability ([3]; first compound 2.53 µM): 0.803; relative viability ([3]; first compound 8 µM): 0.657; relative viability ([4]; first compound 0.08 µM): 0.738; relative viability ([4]; first compound 0.253 µM): 0.958; relative viability ([4]; first compound 0.8 µM): 0.857; relative viability ([4]; first compound 2.53 µM): 0.659; relative viability ([4]; first compound 8 µM): 0.653; relative viability ([5]; first compound 0.08 µM): 0.664; relative viability ([5]; first compound 0.253 µM): 1.06; relative viability ([5]; first compound 0.8 µM): 0.852; relative viability ([5]; first compound 2.53 µM): 0.862; relative viability ([5]; first compound 8 µM): 0.677; relative viability ([6]; first compound 0.08 µM): 0.841; relative viability ([6]; first compound 0.253 µM): 1.12; relative viability ([6]; first compound 0.8 µM): 1; relative viability ([6]; first compound 2.53 µM): 0.923; relative viability ([6]; first compound 8 µM): 1.06; relative viability ([7]; first compound 0.08 µM): 1.17; relative viability ([7]; first compound 0.253 µM): 1.14; relative viability ([7]; first compound 0.8 µM): 1.16; relative viability ([7]; first compound 2.53 µM): 0.901; relative viability ([7]; first compound 8 µM): 0.953; relative viability ([8]; first compound 0.253 µM): 0.459; relative viability ([8]; first compound 0.8 µM): 0.296; relative viability ([8]; first compound 2.53 µM): 0.245; relative viability ([8]; first compound 8 µM): 0.295; relative viability ([9]; first compound 0.08 µM): 0.864; relative viability ([9]; first compound 0.253 µM): 1.09; relative viability ([9]; first compound 0.8 µM): 0.993; relative viability ([9]; first compound 2.53 µM): 0.824; relative viability ([9]; first compound 8 µM): 0.845; relative viability ([10]; first compound 0.08 µM): 0.867; relative viability ([10]; first compound 0.253 µM): 1.15; relative viability ([10]; first compound 0.8 µM): 0.887; relative viability ([10]; first compound 2.53 µM): 0.786; relative viability ([10]; first compound 8 µM): 0.984; relative viability ([11]; first compound 0.08 µM): 1.02; relative viability ([11]; first compound 0.253 µM): 1.02; relative viability ([11]; first compound 0.8 µM): 1.08; relative viability ([11]; first compound 2.53 µM): 0.963; relative viability ([11]; first compound 8 µM): 1.21; relative viability ([12]; first compound 0.08 µM): 0.792; relative viability ([12]; first compound 0.253 µM): 1.03; relative viability ([12]; first compound 0.8 µM): 0.816; relative viability ([12]; first compound 2.53 µM): 0.755; relative viability ([12]; first compound 8 µM): 0.522

Question: COc1nc(C)cnc1NS(=O)(=O)c1cccnc1-c1ccc(-c2nnco2)cc1 [Zibotentan] + C[C@]1(O)C[C@@H](c2nc(-c3ccc4ccc(-c5ccccc5)nc4c3)c3c(N)nccn32)C1 [Linsitinib] (partner 1 µM) was tested. Which relative viability ([1]; first compound 0.08 µM) did it give?
Answer: 1.21

Question: And the relative viability ([1]; first compound 0.253 µM)?
Answer: 1

Question: And the relative viability ([1]; first compound 0.8 µM)?
Answer: 0.939

Question: And the relative viability ([1]; first compound 2.53 µM)?
Answer: 1.07

Question: And the relative viability ([2]; first compound 0.08 µM)?
Answer: 0.938

Question: What about the relative viability ([2]; first compound 0.253 µM) of the same compound?
Answer: 1.01

Question: And the relative viability ([2]; first compound 0.8 µM)?
Answer: 0.984

Question: What about the relative viability ([2]; first compound 2.53 µM) of the same compound?
Answer: 0.987

Question: And the relative viability ([3]; first compound 0.08 µM)?
Answer: 1.04

Question: And the relative viability ([3]; first compound 0.253 µM)?
Answer: 0.783

Question: And the relative viability ([3]; first compound 0.8 µM)?
Answer: 0.863

Question: And the relative viability ([3]; first compound 2.53 µM)?
Answer: 0.878

Question: And the relative viability ([4]; first compound 0.08 µM)?
Answer: 0.578

Question: What about the relative viability ([4]; first compound 0.253 µM) of the same compound?
Answer: 0.539

Question: And the relative viability ([4]; first compound 0.8 µM)?
Answer: 0.589

Question: What about the relative viability ([4]; first compound 2.53 µM) of the same compound?
Answer: 0.642

Question: What about the relative viability ([5]; first compound 0.08 µM) of the same compound?
Answer: 0.627

Question: What about the relative viability ([5]; first compound 0.253 µM) of the same compound?
Answer: 0.743

Question: What about the relative viability ([5]; first compound 0.8 µM) of the same compound?
Answer: 0.778

Question: What about the relative viability ([5]; first compound 2.53 µM) of the same compound?
Answer: 0.456

Question: And the relative viability ([6]; first compound 0.08 µM)?
Answer: 0.996

Question: And the relative viability ([6]; first compound 0.253 µM)?
Answer: 0.885

Question: What about the relative viability ([6]; first compound 0.8 µM) of the same compound?
Answer: 0.966

Question: What about the relative viability ([6]; first compound 2.53 µM) of the same compound?
Answer: 0.922

Question: And the relative viability ([7]; first compound 0.08 µM)?
Answer: 0.775

Question: What about the relative viability ([7]; first compound 0.253 µM) of the same compound?
Answer: 0.803

Question: And the relative viability ([7]; first compound 0.8 µM)?
Answer: 1.01

Question: And the relative viability ([7]; first compound 2.53 µM)?
Answer: 0.822

Question: And the relative viability ([8]; first compound 0.08 µM)?
Answer: 0.655

Question: And the relative viability ([8]; first compound 0.253 µM)?
Answer: 0.718

Question: And the relative viability ([8]; first compound 0.8 µM)?
Answer: 0.865

Question: And the relative viability ([8]; first compound 2.53 µM)?
Answer: 0.167

Question: And the relative viability ([9]; first compound 0.08 µM)?
Answer: 1.12

Question: What about the relative viability ([9]; first compound 0.253 µM) of the same compound?
Answer: 1

Question: And the relative viability ([9]; first compound 0.8 µM)?
Answer: 1.05

Question: And the relative viability ([9]; first compound 2.53 µM)?
Answer: 1.14

Question: What about the relative viability ([10]; first compound 0.08 µM) of the same compound?
Answer: 1.02

Question: What about the relative viability ([10]; first compound 0.253 µM) of the same compound?
Answer: 0.748

Question: What about the relative viability ([10]; first compound 0.8 µM) of the same compound?
Answer: 0.896

Question: What about the relative viability ([10]; first compound 2.53 µM) of the same compound?
Answer: 1.14

Question: And the relative viability ([11]; first compound 0.08 µM)?
Answer: 1.17

Question: What about the relative viability ([11]; first compound 0.253 µM) of the same compound?
Answer: 0.949

Question: And the relative viability ([11]; first compound 0.8 µM)?
Answer: 0.92

Question: What about the relative viability ([11]; first compound 2.53 µM) of the same compound?
Answer: 0.849

Question: And the relative viability ([12]; first compound 0.08 µM)?
Answer: 0.816

Question: What about the relative viability ([12]; first compound 0.253 µM) of the same compound?
Answer: 0.986

Question: What about the relative viability ([12]; first compound 0.8 µM) of the same compound?
Answer: 0.934

Question: And the relative viability ([12]; first compound 2.53 µM)?
Answer: 0.915
